Source: ChEMBL document CHEMBL1142479, “Studies on the synthesis of neamine-dinucleosides and neamine-PNA conjugates and their interaction with RNA” (Bioorg Med Chem Lett, 2008)
pKd: −log10 of the molar value.

Assays:
[1] = Binding affinity to 16S RNA by surface plasmon resonance
[2] = Binding affinity to 18S RNA by surface plasmon resonance
[3] = Binding affinity to trans-activation response RNA by surface plasmon resonance
[4] = Ratio of Kd for 18S RNA to Kd for 16S RNA

Row | pKd [1] | pKd [2] | pKd [3] | Ratio [4] | SMILES
1 | 5.10 | 4.96 | 5.00 | 1.38 | Cc1cn(CC(=O)N(CCN)CC(=O)NCCN[C@H]2[C@@H](O)[C@H](N)C[C@H](N)[C@H]2O[C@H]2O[C@H](CN)[C@@H](O)[C@H](O)[C@H]2N)c(=O)[nH]c1=O
2 | 3.52 | 3.26 | 3.20 | 1.8 | Cc1cn([C@H]2C[C@H](OP(=O)(O)OC[C@H]3O[C@@H](n4cc(C)c(=O)[nH]c4=O)C[C@@H]3O)[C@@H](C(=O)NCCN[C@H]3[C@@H](O)[C@H](N)C[C@H](N)[C@H]3O[C@H]3O[C@H](CN)[C@@H](O)[C@H](O)[C@H]3N)O2)c(=O)[nH]c1=O
3 | 4.85 | 4.77 | 4.62 | 1.21 | NCCN(CC(=O)NCCN[C@H]1[C@@H](O)[C@H](N)C[C@H](N)[C@H]1O[C@H]1O[C@H](CN)[C@@H](O)[C@H](O)[C@H]1N)C(=O)Cn1ccc(=O)[nH]c1=O
4 | 4.77 | 4.46 | 4.96 | 2.06 | NCCN(CC(=O)NCCN(CC(=O)NCCN[C@H]1[C@@H](O)[C@H](N)C[C@H](N)[C@H]1O[C@H]1O[C@H](CN)[C@@H](O)[C@H](O)[C@H]1N)C(=O)Cn1ccc(=O)[nH]c1=O)C(=O)Cn1ccc(=O)[nH]c1=O
5 | 5.05 | 5.00 | 5.30 | 1.11 | Cc1cn(CC(=O)N(CCN)CC(=O)NCCN(CC(=O)NCCN[C@H]2[C@@H](O)[C@H](N)C[C@H](N)[C@H]2O[C@H]2O[C@H](CN)[C@@H](O)[C@H](O)[C@H]2N)C(=O)Cn2cc(C)c(=O)[nH]c2=O)c(=O)[nH]c1=O
6 | 3.45 | 2.92 | 3.00 | 3.45 | Cc1cn([C@H]2C[C@H](O)[C@@H](COP(=O)(O)O[C@H]3C[C@H](n4ccc(=O)[nH]c4=O)O[C@@H]3C(=O)NCCN[C@H]3[C@@H](O)[C@H](N)C[C@H](N)[C@H]3O[C@H]3O[C@H](CN)[C@@H](O)[C@H](O)[C@H]3N)O2)c(=O)[nH]c1=O
7 | 3.74 | 3.39 | 3.38 | 2.24 | NC[C@H]1O[C@H](O[C@H]2[C@@H](NCCNC(=O)[C@H]3O[C@@H](n4ccc(=O)[nH]c4=O)C[C@@H]3OP(=O)(O)OC[C@H]3O[C@@H](n4ccc(=O)[nH]c4=O)C[C@@H]3O)[C@@H](O)[C@H](N)C[C@@H]2N)[C@H](N)[C@@H](O)[C@@H]1O
8 | 4.80 | 4.92 | 4.92 | 0.75 | NCCN(CC(=O)NCCN[C@H]1[C@@H](O)[C@H](N)C[C@H](N)[C@H]1O[C@H]1O[C@H](CN)[C@@H](O)[C@H](O)[C@H]1N)C(=O)Cn1cnc2c(N)ncnc21
9 | 4.92 | 4.60 | 5.10 | 2.08 | Cc1cn(CC(=O)N(CCN)CC(=O)NCCN(CC(=O)NCCN[C@H]2[C@@H](O)[C@H](N)C[C@H](N)[C@H]2O[C@H]2O[C@H](CN)[C@@H](O)[C@H](O)[C@H]2N)C(=O)Cn2ccc(=O)[nH]c2=O)c(=O)[nH]c1=O
10 | 4.96 | 4.70 | 5.22 | 1.81 | Cc1cn(CC(=O)N(CCNC(=O)CN(CCN)C(=O)Cn2ccc(=O)[nH]c2=O)CC(=O)NCCN[C@H]2[C@@H](O)[C@H](N)C[C@H](N)[C@H]2O[C@H]2O[C@H](CN)[C@@H](O)[C@H](O)[C@H]2N)c(=O)[nH]c1=O
11 | 3.50 | 3.26 | 3.27 | 1.76 | Cc1cn([C@H]2C[C@H](OP(=O)(O)OC[C@H]3O[C@@H](n4cc(C)c(=O)[nH]c4=O)C[C@@H]3O)[C@@H](C(=O)NCCCN[C@H]3[C@@H](O)[C@H](N)C[C@H](N)[C@H]3O[C@H]3O[C@H](CN)[C@@H](O)[C@H](O)[C@H]3N)O2)c(=O)[nH]c1=O
12 | 3.64 | 3.32 | 3.32 | 2.11 | Cc1cn([C@H]2C[C@H](OP(=O)(O)OC[C@H]3O[C@@H](n4ccc(=O)[nH]c4=O)C[C@@H]3O)[C@@H](C(=O)NCCN[C@H]3[C@@H](O)[C@H](N)C[C@H](N)[C@H]3O[C@H]3O[C@H](CN)[C@@H](O)[C@H](O)[C@H]3N)O2)c(=O)[nH]c1=O
13 | 3.68 | 3.58 | 3.94 | 1.28 | Cc1cn([C@H]2C[C@H](OP(=O)(O)OC[C@H]3O[C@@H](n4cc(C)c(=O)[nH]c4=O)C[C@@H]3O)[C@@H](C(=O)NCCCCCCN[C@H]3[C@@H](O)[C@H](N)C[C@H](N)[C@H]3O[C@H]3O[C@H](CN)[C@@H](O)[C@H](O)[C@H]3N)O2)c(=O)[nH]c1=O

Row | SMILES | pKd [1] | pKd [2] | pKd [3] | Ratio [4]
14 | NC[C@H]1O[C@H](O[C@H]2[C@H](O)[C@@H](O)[C@H](N)C[C@@H]2N)[C@H](N)[C@@H](O)[C@@H]1O [NEAMINE] | 4.96 | 4.59 | 4.96 | 2.36
